Patent US20260234351A1, “ANTIMICROBIAL POLYMER FOAMS COMPRISING A SYNERGISTIC BLEND OF COMPONENTS” (Cupron Performance Additives, Inc., priority 2023, published 2026)

System: E. coli (ATCC 8739)
Assay: Zone of Inhibition (ZOI), sample pellets on agar
Conditions: for diameter of the ZOI: pellets with 20 wt % cellulose binder (Tables 1 and 2)
[1] = E. coli, 24 h incubation at 37° C.

Experimental: Zone of Inhibition (ZOI). […] The cultures were streaked on Luria Agar (LB) plates and incubated overnight at 37° C. […] 50 μL of this stock suspension was spread homogeneously on a trypticase soy agar (TSA) plate (diameter 10 cm).

Substance	diameter of the ZOI [1]	antimicrobial efficacy in the zone of inhibition testing (compound alone)	Zone of Inhibition Diameter (mm) Avg (E. coli, 24 h incubation at 37° C., cellulose binder, average of 3 trials) [mm]
Zinc borate	No ZOI	no significant antimicrobial efficacy	–
basic copper(II) carbonate [BCC]	–	–	12
molybdenum (VI) oxide [molybdenum oxide]	19 mm	–	–
